Assay results: patent US5968910A, “Compositions containing two or three inhibitors of different HIV reverse transcriptases” (priority 1994, dated 1999)
Values after ≈ are worked out from the molar mass of the structure shown. Like-named read-outs stand apart in the source and are kept apart here.

Experiments:
Assay type in all cases: cell-based
HIV-1/II(0.1) 100-Ile = assay: Sensitivity of mutant HIV-1 strain in CEM cell cultures; conditions: Table 5
Method: (§1) CEM cells were suspended at 250,000 cells per ml of culture medium and infected with wild-type HIV-I(IIIB) or mutant HIV-1 strains at 100 50% cell culture infective doses per ml. Then 100 μl of the infected cell suspensions was added to 200-μl microtiter plate wells containing 100 μl of an appropriate dilution of the test compounds. After 4 days incubation at 37° C., the cell cultures were examined for syncytium formation.

HIV-1/Pyr (181-Cys) = assay: as above; conditions: CEM cells, Table 1
Method: as §1

[1] = system: HIV-1/V(0.1) 101-Ile + 141-Glu; assay: as above; conditions: Table 5
Method: as §1

HIV-1/I(0.1) 103-Asn = assay: as above; conditions: Table 5
Method: as §1

[2] = system: HIV-1/TSAO-m^3 T (138-Lys); assay: as above; conditions: CEM cells, Table 1
Method: as §1

[3] = system: HIV-1/TIBO R82913 (103-Asn); assay: as above; conditions: CEM cells, Table 1
Method: as §1

[4] = system: HIV-1/TIBO R82150 (100-Ile); assay: as above; conditions: CEM cells, Table 1
Method: as §1

HIV-1/B 101Glu = assay: as above; conditions: Table 5
Method: as §1

HIV-1/V(0.5) 103-Asn = assay: as above; conditions: Table 5
Method: as §1

HIV-1/III(0.1) 103-Asn = assay: as above; conditions: Table 5
Method: as §1

HIV-1/IV(0.1) 103-Thr = assay: as above; conditions: Table 5
Method: as §1

HIV-1/Nev (106-Ala) = assay: as above; conditions: CEM cells, Table 1
Method: as §1

HIV-1(IIIB) (WT) = assay: microbe, parasite or virus in culture; conditions: Human immunodeficiency virus 1, IIIB, CCRF-CEM
Method: as §1

HIV-1(IIIB) = assay: Knock-out concentrations: breakthrough of HIV-1(IIIB)-induced cytopathicity in CEM cell cultures
Method: The culture medium consisted of RPMI 1640 containing 10% fetal bovine serum, 2 mM L-glutamine, and 0.075% NaHCO3. The multiplicity of the initial infection was ~1000 times the CCID50 (50% cell culture infective dose). Passages were performed every 3 to 4 days by adding 0.5 to 1.0 ml of the infected culture supernatant to 5 ml of a suspension containing 4×10^5 uninfected CEM cells per ml. Syncytium formation was used as a parameter of virus breakthrough in the cell cultures. In the drug combination experiments, the compounds were combined at the same initial concentrations as used for the two lowest concentrations in the single-drug experiments.
The drug concentrations were kept constant throughout the whole time period of the experiment (10 subcultivations or 35 days). Then the drugs were removed from the cell cultures, and the cells were further subcultured for at least 5 additional passages.

## Cc1ccnc2c1NC(=O)c1cccnc1N2C1CC1 [Nevirapine, reference compound]
HIV-1/II(0.1) 100-Ile
  EC50: ≥ 5 µg/mL
HIV-1/Pyr (181-Cys)
  50% Effective Concentration: 2.30 µg/mL
[1]
  EC50: 0.24 µg/mL (≈ 0.901 µM)
HIV-1/I(0.1) 103-Asn
  EC50: 1.7 µg/mL (≈ 6.38 µM)
[2]
  50% Effective Concentration: 0.030 µg/mL
[3]
  50% Effective Concentration: 1.5 µg/mL
[4]
  50% Effective Concentration: 0.100 µg/mL
HIV-1/B 101Glu
  EC50: > 2.5 µg/mL
HIV-1/V(0.5) 103-Asn
  EC50: ≥ 5 µg/mL
HIV-1/III(0.1) 103-Asn
  EC50: 0.38 µg/mL (≈ 1.43 µM)
HIV-1/IV(0.1) 103-Thr
  EC50: 2.7 µg/mL (≈ 10.1 µM)
HIV-1/Nev (106-Ala)
  50% Effective Concentration: 2.3 µg/mL
HIV-1(IIIB) (WT); CEM cells, Table 1, read-out: 50% Effective Concentration
  EC50: 0.007 µg/mL (≈ 0.0263 µM)
HIV-1(IIIB) (WT); HIV-1 (III8), Table 5, read-out: EC50
  EC50: 0.007 µg/mL (≈ 0.0263 µM)
HIV-1(IIIB); 0.1 μg/ml, day 4 post infection
  HIV-1-induced cytopathicity in cell culture: 37.5 percentage of control
HIV-1(IIIB); 0.1 μg/ml, day 8 post infection
  HIV-1-induced cytopathicity in cell culture: 87.5 percentage of control
HIV-1(IIIB); 0.1 μg/ml, day 11 post infection
  HIV-1-induced cytopathicity in cell culture: 100 percentage of control
HIV-1(IIIB); 0.1 μg/ml, day 14 post infection
  HIV-1-induced cytopathicity in cell culture: 100 percentage of control
HIV-1(IIIB); 0.1 μg/ml, day 17 post infection
  HIV-1-induced cytopathicity in cell culture: 100 percentage of control
HIV-1(IIIB); 0.1 μg/ml, day 21 post infection
  HIV-1-induced cytopathicity in cell culture: 100 percentage of control
HIV-1(IIIB); 0.1 μg/ml, day 25 post infection
  HIV-1-induced cytopathicity in cell culture: 100 percentage of control
HIV-1(IIIB); 0.1 μg/ml, day 28 post infection
  HIV-1-induced cytopathicity in cell culture: 100 percentage of control
HIV-1(IIIB); 0.1 μg/ml, day 32 post infection
  HIV-1-induced cytopathicity in cell culture: 100 percentage of control
HIV-1(IIIB); 0.1 μg/ml, day 35 post infection
  HIV-1-induced cytopathicity in cell culture: 100 percentage of control
HIV-1(IIIB); 0.1 μg/ml, day 39 post infection, compound absent from day 35
  HIV-1-induced cytopathicity in cell culture: 100 percentage of control
HIV-1(IIIB); 0.1 μg/ml, day 42 post infection, compound absent from day 35
  HIV-1-induced cytopathicity in cell culture: 100 percentage of control
HIV-1(IIIB); 0.1 μg/ml, day 46 post infection, compound absent from day 35
  HIV-1-induced cytopathicity in cell culture: 100 percentage of control
HIV-1(IIIB); 0.1 μg/ml, day 49 post infection, compound absent from day 35
  HIV-1-induced cytopathicity in cell culture: 100 percentage of control
HIV-1(IIIB); 0.1 μg/ml, day 53 post infection, compound absent from day 35
  HIV-1-induced cytopathicity in cell culture: 100 percentage of control
HIV-1(IIIB); 0.5 μg/ml, day 4 post infection
  HIV-1-induced cytopathicity in cell culture: 6.25 percentage of control
HIV-1(IIIB); 0.5 μg/ml, day 8 post infection
  HIV-1-induced cytopathicity in cell culture: 25 percentage of control
HIV-1(IIIB); 0.5 μg/ml, day 11 post infection
  HIV-1-induced cytopathicity in cell culture: 50 percentage of control
HIV-1(IIIB); 0.5 μg/ml, day 14 post infection
  HIV-1-induced cytopathicity in cell culture: 100 percentage of control
HIV-1(IIIB); 0.5 μg/ml, day 17 post infection
  HIV-1-induced cytopathicity in cell culture: 100 percentage of control
HIV-1(IIIB); 0.5 μg/ml, day 21 post infection
  HIV-1-induced cytopathicity in cell culture: 100 percentage of control
HIV-1(IIIB); 0.5 μg/ml, day 25 post infection
  HIV-1-induced cytopathicity in cell culture: 100 percentage of control
HIV-1(IIIB); 0.5 μg/ml, day 28 post infection
  HIV-1-induced cytopathicity in cell culture: 100 percentage of control
HIV-1(IIIB); 0.5 μg/ml, day 32 post infection
  HIV-1-induced cytopathicity in cell culture: 100 percentage of control
HIV-1(IIIB); 0.5 μg/ml, day 35 post infection
  HIV-1-induced cytopathicity in cell culture: 100 percentage of control
HIV-1(IIIB); 0.5 μg/ml, day 39 post infection, compound absent from day 35
  HIV-1-induced cytopathicity in cell culture: 100 percentage of control
HIV-1(IIIB); 0.5 μg/ml, day 42 post infection, compound absent from day 35
  HIV-1-induced cytopathicity in cell culture: 100 percentage of control
HIV-1(IIIB); 0.5 μg/ml, day 46 post infection, compound absent from day 35
  HIV-1-induced cytopathicity in cell culture: 100 percentage of control
HIV-1(IIIB); 0.5 μg/ml, day 49 post infection, compound absent from day 35
  HIV-1-induced cytopathicity in cell culture: 100 percentage of control
HIV-1(IIIB); 0.5 μg/ml, day 53 post infection, compound absent from day 35
  HIV-1-induced cytopathicity in cell culture: 100 percentage of control
HIV-1(IIIB); 2.5 μg/ml, day 4 post infection
  HIV-1-induced cytopathicity in cell culture: 0 percentage of control
HIV-1(IIIB); 2.5 μg/ml, day 8 post infection
  HIV-1-induced cytopathicity in cell culture: 0 percentage of control
HIV-1(IIIB); 2.5 μg/ml, day 11 post infection
  HIV-1-induced cytopathicity in cell culture: 6.25 percentage of control
HIV-1(IIIB); 2.5 μg/ml, day 14 post infection
  HIV-1-induced cytopathicity in cell culture: 25 percentage of control
HIV-1(IIIB); 2.5 μg/ml, day 17 post infection
  HIV-1-induced cytopathicity in cell culture: 62.5 percentage of control
HIV-1(IIIB); 2.5 μg/ml, day 21 post infection
  HIV-1-induced cytopathicity in cell culture: 100 percentage of control
HIV-1(IIIB); 2.5 μg/ml, day 25 post infection
  HIV-1-induced cytopathicity in cell culture: 100 percentage of control
HIV-1(IIIB); 2.5 μg/ml, day 28 post infection
  HIV-1-induced cytopathicity in cell culture: 100 percentage of control
HIV-1(IIIB); 2.5 μg/ml, day 32 post infection
  HIV-1-induced cytopathicity in cell culture: 100 percentage of control
HIV-1(IIIB); 2.5 μg/ml, day 35 post infection
  HIV-1-induced cytopathicity in cell culture: 100 percentage of control
HIV-1(IIIB); 2.5 μg/ml, day 39 post infection, compound absent from day 35
  HIV-1-induced cytopathicity in cell culture: 100 percentage of control
HIV-1(IIIB); 2.5 μg/ml, day 42 post infection, compound absent from day 35
  HIV-1-induced cytopathicity in cell culture: 100 percentage of control
HIV-1(IIIB); 2.5 μg/ml, day 46 post infection, compound absent from day 35
  HIV-1-induced cytopathicity in cell culture: 100 percentage of control
HIV-1(IIIB); 2.5 μg/ml, day 49 post infection, compound absent from day 35
  HIV-1-induced cytopathicity in cell culture: 100 percentage of control
HIV-1(IIIB); 2.5 μg/ml, day 53 post infection, compound absent from day 35
  HIV-1-induced cytopathicity in cell culture: 100 percentage of control
